The values below come from patent US10385030B2, “Cationic lipid” (NOF CORPORATION, priority 2015, dated 2019).

A short description of data set [1]: Particle size and surface potential of MENDs by dynamic light scattering (Experimental Example 6). Format: physicochemical. The procedure: Various MENDs were prepared by the ethanol dilution method in [Experimental Example 1] (2), and DOPC was used as a phospholipid. PEG5000-DSG was used as a PEG lipid, and an amount corresponding to 5 mol % of the total lipid was added in Myr-C3M MEND, and an amount corresponding to 10 mol % was added in TS-PZ4C2 MEND.
pDNA solution (1 mg/mL), 100 mM malic acid buffer (pH 4.0), 5 M aqueous sodium chloride solution and sterilized water were mixed, and a solution having a final concentration of 0.1 mg/mL, 20 mM, 40 mM, respectively, was prepared and used as a DNA solution.
A lipid solution in ethanol was prepared by mixing 5 mM cationic lipid (L-PZ4C2, O-PZ4C2), 10 mM cholesterol (Chol), and 10 mM DOPC at desired ratios to achieve 840 nmol total lipid in a 5 mL tube, further adding PEG5000-DSG (1 mM ethanol solution) in an amount corresponding to 5 mol % of the total lipid, and adding ethanol to achieve a total amount of 200 μL (80% ethanol solution) and 20 mM malic acid buffer (pH 4.0). While stirring the lipid solution in a vortex mixer, the above-mentioned DNA solution (200 μL) was quickly added, after which 20 mM malic acid buffer (pH 4.0) (1600 μL) was added, phosphate buffered saline was added, and the mixture was diluted to an ethanol concentration of 8%. Similar operation was repeated three times and phosphate buffered saline was added to an ethanol concentration of 4%. Thereafter, using Amicon Ultra 15 (Millipore), the mixture was concentrated to about 200 μL by ultrafiltration under centrifugation condition (room temperature, 2267 rpm, 30 min). Thereafter, the mixture was diluted with phosphate buffered saline to 15 mL, and concentrated again by centrifugation (2267 rpm, for 30 min) under room temperature conditions. Finally, it was diluted to a desired lipid concentration with phosphate buffered saline.
The particle size and the surface potential were measured by the dynamic light scattering method (Zetasizer Nano).

In data set [2] the test system is 4T1 tumor. Put plainly: Gene expression activity (gene delivery into tumor) in vivo (Experimental Example 8). Set-up: species or system BALB/c mice. The note with it: MEND encapsulating pDNA, tail vein, 25 mg DNA, 48 hr; FIG. 6. The procedure:
Various MENDs were prepared according to the method described in [Experimental Example 6]. Cancer-carrying mice were produced by subcutaneous administration of a suspension of mouse breast cancer-derived cancer cell line 4T1 cells (1×10^6 cells/mouse) to 6-week-old female BALB/c mice. At 7 days after the subcutaneous transplantation of the cancer cells, the prepared MEND solutions were administered each in an amount corresponding to […] from the tail vein. The mice were euthanized by a cervical spine […] method at 48 hr after the administration, the tumor was isolated and frozen with liquid nitrogen. The tumor was lysed in a Lysis buffer to prepare homogenate. The homogenate was centrifuged at 13,000 rpm, 10 min, 4° C., and the supernatant was collected and used as a measurement sample. The sample solution (20 μL) was mixed with a luciferase substrate (50 μL), and the luciferase activity was measured using Luminescenser-PSN (AB2200 ATTO). In addition, the concentration of the protein in the sample was quantified using a BCA protein assay kit, and the gene expression activity was measured as RLU/mg protein.

The conditions of data set [3]: compared to DOTAP, DODAP; known from patent document 1; cited from earlier work.
Data set [4] in a line: Particle size and surface potential of MENDs by dynamic light scattering (Experimental Example 1). The data set is classed as physicochemical. The procedure:
A solution of pDNA encoding luciferase gene and a protamine (manufactured by CALBIOCHEM) solution were diluted with 10 mM HEPES buffer to 0.15 mg/mL and 96.3 μg/mL, respectively. While stirring 0.15 mg/mL pDNA solution (100 μL), 96.3 μg/mL protamine (100 μL) was added dropwise in small portions to prepare an electrostatic complex of protamine and pDNA (N/P ratio=1.0) as a core of the vector.
A lipid solution in ethanol was prepared by mixing 5 mM cationic lipid (Myr-C3M), 5 mM phospholipid (SOPC) and 5 mM cholesterol (Chol) at desired ratios to achieve 330 nmol total lipid in an Eppendorf tube, further adding PEG2000-DSG (1 mM ethanol solution) in an amount corresponding to 3 mol % of the total lipid, and adding ethanol to achieve a total volume of 200 μL. While stirring the lipid solution in a vortex mixer, 200 μL of the nucleic acid electrostatic complex (10 mM HEPES; pH 5.3) prepared in [Experimental Example 1] (1) was quickly added, and thereafter 10 mM HEPES buffer (1.6 mL, adjusted to pH 5.3) was added. Furthermore, 10 mM HEPES buffer (2 mL) adjusted to pH 5.3 was added to dilute the mixture to an ethanol concentration of 5%. The mixture was concentrated to about 50 μL by ultrafiltration using Amicon Ultra 4 (Millipore) under centrifugation conditions (room temperature, 1000 g, 15 min). Thereafter, it was diluted to 4 mL with 100 mM HEPES buffer (adjusted to pH 7.4), and again concentrated by centrifugation (1000 g, 15 min) under room temperature conditions. Thereafter, it was diluted to 4 mL with 10 mM HEPES buffer (pH 7.4), and again concentrated by centrifugation (1000 g, 15 min) under room temperature conditions. Finally, it was diluted with 10 mM HEPES buffer (pH 7.4) to a desired lipid concentration.
pDNA solution (1 mg/mL), 100 mM malic acid buffer (pH 4.0), 5 M aqueous sodium chloride solution and sterilized water were mixed, and a solution having final concentrations of 0.1 mg/mL, 20 mM, 40 mM, respectively, was prepared and used as a DNA solution.
A lipid solution in ethanol was prepared by mixing 5 mM cationic lipid (TS-PZ4C2 or TS-C3M), and 10 mM cholesterol (Chol) at desired ratios to achieve 600 nmol total lipid in a 5 mL tube, further adding PEG2000-DMG (5 mM ethanol solution) in an amount corresponding to 3 mol % of the total lipid, and adding ethanol to achieve a total volume of 200 μL. While stirring the lipid solution in a vortex mixer, the above-mentioned DNA solution (300 μL) was quickly added, after which 20 mM malic acid buffer (pH 4.0, containing 100 mM sodium chloride) (500 μL) was added, and phosphate buffered saline was added to dilute the mixture to the ethanol concentration of 10%. Similar operation was repeated three times and phosphate buffered saline was added to an ethanol concentration of 5%. Thereafter, the mixture was concentrated to about 200 μL by ultrafiltration using Amicon Ultra 15 (Millipore, under centrifugation conditions (room temperature, 2267 rpm, 20 min). Thereafter, it was diluted to 15 ml with phosphate buffered saline, and again concentrated by centrifugation (2267 rpm, 20 min) under conditions of room temperature. Finally, it was diluted with phosphate buffered saline to a desired lipid concentration.
The particle size and the surface potential were measured by the dynamic light scattering method (Zetasizer Nano; Malvern Instruments Ltd.).

Setting [5] is: MEND of L-PZ4C2, cationic lipid:DOPC:Chol = 6:1:3, PEG5000-DSG 5 mol %.
[6] abbreviates: MEND of Myr-C3M, cationic lipid:DOPC:Chol = 3:4:3, PEG5000-DSG 5 mol %.
Setting [7] is: MEND of Myr-C3M, cationic lipid:SOPC:Chol = 3:4:3, PEG2000-DSG 3 mol %.
The mark [8] stands for this setting: MEND of O-PZ4C2, cationic lipid:DOPC:Chol = 6:1:3, PEG5000-DSG 5 mol %.
Setting [9] is: MEND of TS-C3M, cationic lipid:Chol = 7:3, PEG2000-DMG 3 mol %.
Setting [10] is: MEND of TS-PZ4C2, cationic lipid:Chol = 7:3, PEG5000-DSG 10 mol %.
Where [11] appears, read: MEND of TS-PZ4C2, cationic lipid:Chol = 7:3, PEG2000-DMG 3 mol %.

“Also recorded” adds a separate entry of the source.

`CCCCC/C=C\C/C=C\CCCCCCCC(=O)OCCN1CCN(CCSSCCN2CCN(CCOC(=O)CCCCCCC/C=C\C/C=C\CCCCC)CC2)CC1` [L-PZ4C2]: in data set [1] (setting [5]), the PdI is 0.094, the particle size was found to be 108.7 nm and the zeta potential is on record as 0.144 mV. Further, the “gene delivery expression activity to tumor (luciferase activity, RLU/mg protein)” value in data set [2] was “higher gene delivery expression activity to tumor than the lipid membrane structures using the cationic lipids of Comparative Example 1”.

For `CCCCCCCCCCCCCC(=O)OCCCN(C)CCSSCCN(C)CCCOC(=O)CCCCCCCCCCCCC` [Myr-C3M], in data set [1] (setting [6]), the PdI was found to be 0.134, the particle size stood at 113.9 nm and the zeta potential is −0.135 mV. Besides, the “nucleic acid delivery efficiency” value in data set [3] was “high nucleic acid delivery efficiency as compared to cationic lipids such as DOTAP, DODAP; also recorded: higher nucleic acid delivery efficiency as compared to conventional cationic lipids such as DOTAP, DODAP”. For the same compound, in data set [4] (setting [7]), the PdI stood at 0.188, the particle size is 128.3 nm and the zeta potential was found to be 1.88 mV.

Take `CCCCCCCC/C=C\CCCCCCCC(=O)OCCN1CCN(CCSSCCN2CCN(CCOC(=O)CCCCCCC/C=C\CCCCCCCC)CC2)CC1` [O-PZ4C2]: in data set [1] (setting [8]), the PdI is reported as 0.083, the particle size was determined as 115.2 nm and the zeta potential was −0.294 mV. Moreover, in data set [2], the “gene delivery expression activity to tumor (luciferase activity, RLU/mg protein)” value was “higher gene delivery expression activity to tumor than the lipid membrane structures using the cationic lipids of Comparative Example 1”.

Consider `Cc1c(C)c2c(c(C)c1OC(=O)CCC(=O)OCCCN(C)CCSSCCN(C)CCCOC(=O)CCC(=O)Oc1c(C)c(C)c3c(c1C)CCC(C)(CCCC(C)CCCC(C)CCCC(C)C)O3)CCC(C)(CCCC(C)CCCC(C)CCCC(C)C)O2` (stereo not shown) [TS-C3M], for which the “nucleic acid delivery efficiency” value in data set [3] is given as “high nucleic acid delivery efficiency as compared to cationic lipids such as DOTAP, DODAP”. Further, in data set [4] (setting [9]), the PdI came to 0.08, the particle size is 141.3 nm and the zeta potential is listed as −5.4 mV.

As for `Cc1c(C)c2c(c(C)c1OC(=O)CCC(=O)OCCN1CCN(CCSSCCN3CCN(CCOC(=O)CCC(=O)Oc4c(C)c(C)c5c(c4C)CCC(C)(CCCC(C)CCCC(C)CCCC(C)C)O5)CC3)CC1)CCC(C)(CCCC(C)CCCC(C)CCCC(C)C)O2` (stereo not shown) [TS-PZ4C2], in data set [1] (setting [10]), the PdI amounted to 0.121, the particle size is on record as 104.8 nm and the zeta potential is on record as −0.897 mV. In data set [4] (setting [11]), the PdI was found to be 0.041, the particle size amounted to 126.8 nm and the zeta potential was −7.38 mV.
